Consider two molecules from publication PMC8228819, “Comparison of a Short Linear Antimicrobial Peptide with Its Disulfide-Cyclized and Cyclotide-Grafted Variants against Clinically Relevant Pathogens” (Microorganisms, 2021).

The subject of data set [1] is Acinetobacter baumannii, clinical isolate from SGUL. The data set is classed as cell-based. The protocol:
(§1) The following strains were used in this study: Escherichia coli, ATCC 25922, Staphylococcus aureus, epidemic methicillin-resistant EMRSA-15, Klebsiella pneumoniae, clinical isolate from St George’s, University of London (SGUL, London, UK), Acinetobacter baumannii, clinical isolate from SGUL, Pseudomonas aeruginosa, PA01 wildtype strain, and Enterococcus faecalis, vancomycin-resistant ATCC 51299.
(§2) The minimal inhibitory concentration (MIC) was determined in a microdilution assay using Mueller–Hinton (MH) or Brain Heart Infusion Broth (BHI) broth following a previously published protocol. Briefly, a twofold serial dilution of the antibiotics and peptides were prepared and added to a bacteria solution, resulting in 2–5 10^5 CFU/mL. The microtiter plates (polypropylene, Corning, Corning, NY, USA) were incubated for 18 h at 37 °C and MICs were taken visually. Based on our experience with proline rich peptides, their low activity in Mueller–Hinton broth, and their strong activity in diluted broth, we decided to also measure the activity of the peptide set in a 1/5 dilution of the broth. MICs in the presence of serum were established using human serum (Zen-Bio, Durham, NC, USA) and heat-inactivated serum (Sigma-Aldrich, St. Louis, MO, USA). A total of 20% (v/v) of each human serum was mixed with bacterial solution and added to predetermined concentrations of antibiotics and peptides, resulting in a final 10% (v/v) concentration of serum and 2–5 × 10^5 bacteria.

In data set [2] the test system is Enterococcus faecalis, vancomycin-resistant ATCC 51299. The data set is classed as cell-based. The protocol: as §1, §2
For data set [3], the system named is Escherichia coli, ATCC 25922. The data set is classed as cell-based. How it is done: as §1, §2
The subject of data set [4] is Klebsiella pneumoniae, clinical isolate from St George's, University of London. The data set is classed as cell-based. The protocol: as §1, §2
Data set [5] concerns Pseudomonas aeruginosa, PA01 wildtype strain. The data set is classed as cell-based. How it is done:
as §1, §2

The test system of data set [6] is Staphylococcus aureus, epidemic methicillin-resistant EMRSA-15. The data set is classed as cell-based. The conditions noted are these: ratio of MICs. The protocol:
as §1, §2

Data set [7] relates to ESKAPE pathogens (E. faecalis, S. aureus, K. pneumoniae, A. baumannii, P. aeruginosa, E. coli). As to the kind of experiment: MIC summary over the ESKAPE panel. The format is cell-based. The protocol:
as §1, §2

A further data set can be described thus: Serum stability assay. The format is in vitro ADME, human. The conditions noted are these: 100% human serum. How it is done:
(§3) Serum stability assays were performed in 100% human serum (Sigma-Aldrich, St. Louis MO, USA, human male AB plasma). Serum was centrifuged to remove lipids and incubated with the peptides at 100 μM for 0, 0.5, 1, 3, 6, and 24 h at 37 °C. Serum proteins were precipitated by adding 3 μL of TFA to 40 μL of peptide – serum sample (final TFA 7%). The remaining supernatant was diluted with 50:50 solvent A/B. The amount of peptide remaining (%) was quantified by UPLC-MS analysis. For pH stability experiments, peptides were incubated at a concentration of 20 μM at pH 1.2 and 7.5 for 24 h, and stability was monitored by UPLC analysis.

The nature of a further data set: pH stability. The data set is classed as physicochemical. The conditions noted are these: 20 μM, pH 1.2 and 7.5, 24 h, UPLC. How it is done: as §3
Another data set has as its system E. coli (ATCC 25922). As to the kind of experiment: Time kill assay. The format is cell-based, Escherichia coli. The conditions noted are these: 1/5 (20%) MH broth, 3 times the MIC, 1 × 10^6 CFU/mL, 37 °C, 10-1440 min, three experiments. How it is done:
Overnight culture of E. coli (ATCC 25922) was diluted for approximately two hours to achieve logarithmic phase. The logarithmic phase inoculum was then adjusted to 1 × 10^6 CFU/mL in 20% MH broth. Within a 1.5 mL microfuge tube (STARLAB (UK) Limited, Milton Keynes, UK), the peptides were added to the inoculum at a concentration that was threefold the MIC against E coli. The tubes were placed in a shaking incubator (225 rpm) at 37 °C. At predetermined time points between 0 and 24 h: 10, 20, 40, 60, 120, 240, and 1440 min for the peptides, and for the untreated control: 0, 60, 120, 240, and 1080 min, 100 µl samples were taken out. Furthermore, a 1 in 10 dilution series using sterile 10 mM Tris buffer (pH 7.5) was performed using the removed sample, then 5 × 5 µL were spotted for each dilution onto MH agar plates and incubated at 37 °C. The next day, the colonies were counted and the colony forming units, CFU/mL for each time point, were determined.

The conditions of data set [8]: cited from earlier work. From the text:
These loops were previously found to be abl ... || Fractions f4 to f6 of [L6-optP7]Mco were initially tested against P. aeruginosa, E. coli, and MRSA (Table 1) using a rich media, Mueller–Hinton broth (MH), with all fractions displaying about the same moderate activity (within errors of the method). […] Calcium (Ca^2+) and magnesium (Mg^2+) often have the strongest effect on the antimicrobial activity of AMPs; their theoretical concentration in MH brot ...

The next data set has as its system red blood cells. The conditions noted are these: cited from earlier work. From the text: The 9mer AMP was grafted into loops 5 and 6 of MCoTI-II. These loops were previously found to be abl ...
For data set [9] the following is noted: cited from earlier work. From the text: We therefore followed two cyclization strategies: (i) a simple disulfide-cyclization by introduction of N- and C-terminal cysteines, and (ii) grafting onto an extremely stable scaffold with three disulfide bridges and backbone cyclization. The MCoTI-II cyclotide scaffold was used because of its inherent non-cytotoxic nature. […] The linear peptide was ...
This is another data set of the same source.

Setting [10] is: ratio of MICs (fold loss of activity in serum).

“Also recorded” adds a separate entry of the source. Where two headings read alike, the source gives them in different places. Bridge positions count the residues as written; N and C are the ends. Peptide text beside a SMILES is read from it.

`CC[C@H](C)[C@@H]1NC(=O)[C@@H]2CSSC[C@@H]3NC(=O)[C@H](Cc4c[nH]c5ccccc45)NC(=O)[C@H]([C@@H](C)CC)NC(=O)[C@H]([C@@H](C)CC)NC(=O)[C@H](Cc4c[nH]c5ccccc45)NC(=O)[C@H](CCCNC(=N)N)NC(=O)[C@H](C(C)C)NC(=O)[C@H](CCCNC(=N)N)NC(=O)[C@H](CCCNC(=N)N)NC(=O)[C@H](CCCCN)NC(=O)[C@@H]4CSSC[C@H](NC(=O)[C@H](CC(=O)O)NC(=O)[C@H](CO)NC(=O)[C@H](CC(=O)O)NC(=O)[C@H](CCCNC(=N)N)NC(=O)[C@H](CCCNC(=N)N)NC(=O)[C@H](CSSC[C@H](NC1=O)C(=O)N[C@@H](CCCNC(=N)N)C(=O)NCC(=O)N[C@@H](CC(N)=O)C(=O)NCC(=O)N[C@@H](Cc1ccc(O)cc1)C(=O)N4)NC(=O)[C@H](CCCCN)NC(=O)[C@H](CCCCN)NC(=O)[C@H](CC(C)C)NC(=O)[C@H]([C@@H](C)CC)NC(=O)[C@H](CCCCN)NC(=O)[C@@H]1CCCN1C3=O)C(=O)N1CCC[C@H]1C(=O)NCC(=O)N[C@@H](C)C(=O)N2` [[L6-optP7]Mco] (cyclo(ACICRGNGYCKRRVRWIIWCPKILKKCRRDSDCPG); disulfide 2-20, 4-27, 10-33): the “Ratio of MIC of cyclized peptide version over MIC of the linear peptide optP7” value (shortened to “Ratio of MIC of cyclized peptide version”) in data set [1] (1/5 MH) is 5; in data set [1] (1/5 MH + 10% human serum), 10.3; in data set [1] (MH), 41.3; in data set [2] (1/5 BHI) it was 18.8; in data set [2] (1/5 BHI + 10% human serum) it was 2.6; in data set [3] (1/5 MH + 10% human serum) it was 18.8. For the same molecule, the “Ratio of MIC of cyclized peptide version” value is recorded as 3.3 in data set [3] (1/5 MH, average used for an MIC range); 77.5 in data set [3] (MH); 20.7 in data set [4] (1/5 MH); 41.3 in [4] (MH); 10.0 in [5] (1/5 MH); 1.3 in [5] (1/5 MH + 10% human serum). Besides, in data set [5] (MH), the “Ratio of MIC of cyclized peptide version” value was 20.6. Further, the “Improvement of activity when diluting the broth” value in data set [1] (1/5 MH versus MH) came to 15.5 fold; in data set [3] (1/5 MH versus MH), 31 fold; in data set [4] (1/5 MH versus MH) it was 2 fold; in data set [5] (1/5 MH versus MH, Table 2 data), 7.8 fold. In addition, the “Ratio 1/5 MH + 10% serum/ 1/5MH” value in data set [1] (ratio of MICs) is reported as 7.75; in [3] (setting [10]) it was 7.5; in data set [5] (setting [10]), 1; in data set [6], more than 7.8. Moreover, the “Ratio 1/5 BHI + 10% serum/ 1/5BHI” value in data set [2] (ratio of MICs) was found to be 4.1. In addition, the “Improvement of activity in diluted media” value in [5] (1/5 MH versus MH, fractions of Table 1) is 7.8 fold. The “Average activity decrease, lower than for c-opt7” value in data set [7] is given as 1.6 fold. Moreover, the “Average activity decrease factor compared to linear optP7” value in data set [7] (all conditions of Table 3) is 15.5 fold. Further, the “Antimicrobial activity in broth (in words)” value in [7] (undiluted broth) is recorded as “medium to weak”. For the same molecule, the “Increase in stability against degradation in 100% human serum compared to the linear variant” value in the data set “Serum stability assay” is given as 33 fold. In addition, the remaining at 24 h, 100 μM in “Serum stability assay” (male, 100% human serum (human male AB plasma), 100 μM, 37 °C, 24 h, UPLC-MS, read-out: Peptide still present after 24 h in human serum) was approximately 30%. In the data set “pH stability”, the pH stability result was “minor signs of degradation after 24 h at low pH”. Besides, in the data set on E. coli (ATCC 25922), the Kinetics of killing result is “drastically slower acting”.

As for “Momordica trypsin inhibitor II (cyclo(SGSDGGVCPKILKKCRRDSDCPGACICRGNGYCG); also: three cystine-knot disulfides, pairing not given here; UniProt P82409 1-34, looked up) [MCoTI-II]”, in data set [8], the Antimicrobial activity entry was “does not exhibit any antimicrobial activity; also recorded: does not exhibit any antimicrobial effects”. For the same molecule, the “Hemolytic activity towards red blood cells” value in the data set on red blood cells was “does not show hemolytic activity”. The “Stability in human serum” value in [9] is “high stability”.
